# Reference: PubChem BioAssay AID2060899 (Molecular Pharmacology Branch, DTP, NCI, 2025)
# pIC50: −log10 of the molar value.
# System: 565726-208-R1-J5-PDC complex spheroids, growth inhibition
# Assay: Anticancer human tumor 565726-208-R1-J5-PDC patient-derived pancreatic adenocarcinoma cell line growth inhibition [RAS]
# Details: for pIC50: curve of first compound; for viability, T/C: stronger effect = lower value
# How it was run: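 Agents were tested in combination matrices in half-log decrements from a top concentration at or near clinical Cmax (10 microM if undetermined). Targets were multi-cell spheroids of tumour lines plus HUVEC and MSC stromal cells.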
# [1] = second compound 0.000949 µM, first compound 0.0316 µM
# [2] = second compound 0.000949 µM, first compound 0.1 µM
# [3] = second compound 0.000949 µM, first compound 0.316 µM
# [4] = second compound 0.000949 µM, first compound 1 µM
# [5] = second compound 0.000949 µM, first compound 3.16 µM
# [6] = second compound 0.000949 µM, first compound 10 µM
# [7] = second compound 0.003 µM, first compound 0.0316 µM
# [8] = second compound 0.003 µM, first compound 0.1 µM
# [9] = second compound 0.003 µM, first compound 0.316 µM
# [10] = second compound 0.003 µM, first compound 1 µM
# [11] = second compound 0.003 µM, first compound 3.16 µM
# [12] = second compound 0.003 µM, first compound 10 µM
# [13] = second compound 0.00949 µM, first compound 0.0316 µM
# [14] = second compound 0.00949 µM, first compound 0.1 µM
# [15] = second compound 0.00949 µM, first compound 0.316 µM
# [16] = second compound 0.00949 µM, first compound 1 µM
# [17] = second compound 0.00949 µM, first compound 3.16 µM
# [18] = second compound 0.00949 µM, first compound 10 µM
# [19] = second compound 0.03 µM, first compound 0.0316 µM
# [20] = second compound 0.03 µM, first compound 0.1 µM
# [21] = second compound 0.03 µM, first compound 0.316 µM
# [22] = second compound 0.03 µM, first compound 1 µM
# [23] = second compound 0.03 µM, first compound 3.16 µM
# [24] = second compound 0.03 µM, first compound 10 µM
# [25] = second compound 0.0949 µM, first compound 0.0316 µM
# [26] = second compound 0.0949 µM, first compound 0.1 µM
# [27] = second compound 0.0949 µM, first compound 0.316 µM
# [28] = second compound 0.0949 µM, first compound 1 µM
# [29] = second compound 0.0949 µM, first compound 3.16 µM
# [30] = second compound 0.0949 µM, first compound 10 µM
# [31] = second compound 0.3 µM, first compound 0.0316 µM
# [32] = second compound 0.3 µM, first compound 0.1 µM
# [33] = second compound 0.3 µM, first compound 0.316 µM
# [34] = second compound 0.3 µM, first compound 1 µM
# [35] = second compound 0.3 µM, first compound 3.16 µM
# [36] = second compound 0.3 µM, first compound 10 µM
# 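Also: spheroids exposed to compounds for seven days before readout.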
# 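For viability, T/C in this document: 100% = DMSO vehicle control viability.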
structure (smiles),measurement,setting,value
CC(=O)OC12COC1CC(O)C1(C)C(=O)C(O)C3=C(C)C(OC(=O)C(O)C(NC(=O)OC(C)(C)C)c4ccccc4)CC(O)(C(OC(=O)c4ccccc4)C21)C3(C)C (stereo unspecified) + CCn1c(-c2cc(N3CCN(C)CC3)cnc2C(C)OC)c2c3cc(ccc31)-c1csc(n1)CC(NC(=O)C1CC1C)C(=O)N1CCCC(N1)C(=O)OCC(C)(C)C2,pIC50,second compound 0.000949 µM,> 7.50
same,pIC50,second compound 0.003 µM,> 7.50
same,pIC50,second compound 0.00949 µM,> 7.50
same,pIC50,second compound 0.03 µM,> 7.50
same,pIC50,second compound 0.0949 µM,> 7.50
same,pIC50,second compound 0.3 µM,> 7.50
same,"viability, T/C",[1],20.3%
same,"viability, T/C",[2],17%
same,"viability, T/C",[3],19.2%
same,"viability, T/C",[4],17.7%
same,"viability, T/C",[5],20.2%
same,"viability, T/C",[6],20.8%
same,"viability, T/C",[7],20.4%
same,"viability, T/C",[8],17.7%
same,"viability, T/C",[9],17.2%
same,"viability, T/C",[10],15.5%
same,"viability, T/C",[11],18.7%
same,"viability, T/C",[12],18.4%
same,"viability, T/C",[13],17.9%
same,"viability, T/C",[14],17.1%
same,"viability, T/C",[15],14.7%
same,"viability, T/C",[16],16%
same,"viability, T/C",[17],17.6%
same,"viability, T/C",[18],15.2%
same,"viability, T/C",[19],14.5%
same,"viability, T/C",[20],13.7%
same,"viability, T/C",[21],11.5%
same,"viability, T/C",[22],14.5%
same,"viability, T/C",[23],13.7%
same,"viability, T/C",[24],13.6%
same,"viability, T/C",[25],11.7%
same,"viability, T/C",[26],13%
same,"viability, T/C",[27],14.6%
same,"viability, T/C",[28],12.5%
same,"viability, T/C",[29],14.1%
same,"viability, T/C",[30],11.3%
same,"viability, T/C",[31],10.4%
same,"viability, T/C",[32],10.5%
same,"viability, T/C",[33],11.4%
same,"viability, T/C",[34],11.3%
same,"viability, T/C",[35],12%
same,"viability, T/C",[36],10.4%
CC(Nc1ccc2c(c1)OCCn1cc(N3C(=O)OCC3C(F)F)nc1-2)C(N)=O (stereo unspecified) + CCn1c(-c2cc(N3CCN(C)CC3)cnc2C(C)OC)c2c3cc(ccc31)-c1csc(n1)CC(NC(=O)C1CC1C)C(=O)N1CCCC(N1)C(=O)OCC(C)(C)C2,pIC50,second compound 0.000949 µM,6.50
same,pIC50,second compound 0.003 µM,> 7.50
same,pIC50,second compound 0.00949 µM,> 7.50
same,pIC50,second compound 0.03 µM,> 7.50
same,pIC50,second compound 0.0949 µM,> 7.50
same,pIC50,second compound 0.3 µM,> 7.50
same,"viability, T/C",[1],62.7%
same,"viability, T/C",[2],49%
same,"viability, T/C",[3],50.6%
same,"viability, T/C",[4],47.7%
same,"viability, T/C",[5],40.2%
same,"viability, T/C",[6],32.9%
same,"viability, T/C",[7],49.7%
same,"viability, T/C",[8],48.4%
same,"viability, T/C",[9],39.7%
same,"viability, T/C",[10],37.2%
same,"viability, T/C",[11],36.3%
same,"viability, T/C",[12],24.2%
same,"viability, T/C",[13],44.5%
same,"viability, T/C",[14],37.4%
same,"viability, T/C",[15],32.9%
same,"viability, T/C",[16],29.6%
same,"viability, T/C",[17],26.4%
same,"viability, T/C",[18],19.5%
same,"viability, T/C",[19],31.9%
same,"viability, T/C",[20],26.9%
same,"viability, T/C",[21],26.8%
same,"viability, T/C",[22],24.9%
same,"viability, T/C",[23],22.4%
same,"viability, T/C",[24],13.3%
same,"viability, T/C",[25],24.8%
same,"viability, T/C",[26],24.6%
same,"viability, T/C",[27],23.1%
same,"viability, T/C",[28],18.5%
same,"viability, T/C",[29],18.4%
same,"viability, T/C",[30],12.1%
same,"viability, T/C",[31],22.6%
same,"viability, T/C",[32],20.9%
same,"viability, T/C",[33],20.1%
same,"viability, T/C",[34],19.3%
same,"viability, T/C",[35],15.6%
same,"viability, T/C",[36],10.7%
C=CC(=O)N1CCN(c2nc(OCC3CCCN3C)nc3c(F)c(-c4nc(N)cc(C)c4C(F)(F)F)c(Cl)cc23)C(C)C1 (stereo unspecified) + CCn1c(-c2cccnc2C(C)OC)c2c3cc(ccc31)N1CCOC(CC(NC(=O)C(C(C)C)N(C)C(=O)C3(F)CCN(C(=O)C#CC(C)(C)N(C)C)CC3)C(=O)N3CCCC(N3)C(=O)OCC(C)(C)C2)C1,pIC50,second compound 0.000949 µM,< 6.00
same,pIC50,second compound 0.003 µM,< 6.00
same,pIC50,second compound 0.00949 µM,< 6.00
same,pIC50,second compound 0.03 µM,< 6.00
same,pIC50,second compound 0.0949 µM,< 6.00
same,pIC50,second compound 0.3 µM,< 6.00
same,"viability, T/C","second compound 0.000949 µM, first compound 0.00316 µM",99.3%
same,"viability, T/C","second compound 0.000949 µM, first compound 0.01 µM",98.6%
same,"viability, T/C",[1],108%
same,"viability, T/C",[2],111%
same,"viability, T/C",[3],97%
same,"viability, T/C",[4],102%
same,"viability, T/C","second compound 0.003 µM, first compound 0.00316 µM",103%
same,"viability, T/C","second compound 0.003 µM, first compound 0.01 µM",109%
same,"viability, T/C",[7],105%
same,"viability, T/C",[8],93.6%
same,"viability, T/C",[9],96.9%
same,"viability, T/C",[10],103%
same,"viability, T/C","second compound 0.00949 µM, first compound 0.00316 µM",106%
same,"viability, T/C","second compound 0.00949 µM, first compound 0.01 µM",112%
same,"viability, T/C",[13],104%
same,"viability, T/C",[14],107%
same,"viability, T/C",[15],96.8%
same,"viability, T/C",[16],100%
same,"viability, T/C","second compound 0.03 µM, first compound 0.00316 µM",99.3%
same,"viability, T/C","second compound 0.03 µM, first compound 0.01 µM",97.7%
same,"viability, T/C",[19],111%
same,"viability, T/C",[20],98.7%
same,"viability, T/C",[21],98.6%
same,"viability, T/C",[22],104%
same,"viability, T/C","second compound 0.0949 µM, first compound 0.00316 µM",97.1%
same,"viability, T/C","second compound 0.0949 µM, first compound 0.01 µM",109%
same,"viability, T/C",[25],109%
same,"viability, T/C",[26],94.8%
same,"viability, T/C",[27],100%
same,"viability, T/C",[28],94.5%
same,"viability, T/C","second compound 0.3 µM, first compound 0.00316 µM",93.7%
same,"viability, T/C","second compound 0.3 µM, first compound 0.01 µM",79%
same,"viability, T/C",[31],96.7%
same,"viability, T/C",[32],95.4%
same,"viability, T/C",[33],90.3%
same,"viability, T/C",[34],85.3%
